Laboratory results reported in patent US8367716B2 (priority 2003, dated 2013).
Values after ≈ are worked out from the molar mass of the structure shown.

Key:
S. aureus = experiment: Biofilm formation on polystyrene microtitre plates (crystal violet, O.D.570); format: cell-based, Staphylococcus aureus; conditions: DK825, 200 μM
Description: Effect of c-di-GMP on S. aureus biofilm formation. S. aureus strains were subcultured from glycerol stocks onto blood agar plates and incubated at 37° C. for 18 h. A single colony was inoculated into 5 ml TSB broth with a sterilized loop and incubated at 37° C. for 18 h with shaking at 250 rpm and until the O.D.660 reached 3.0 as measured spectrophotometrically using a spectrophotometer (SpectraMAX 250, Molecular Devices). Following incubation, the culture was diluted 1:250 with fresh TSB and a 200 μl of the diluted culture was transferred into wells of a flat-bottom polystyrene microtitre plate (Evergreen Scientific). […] In these biofilm experiments, similar volumes of 0.9% NaCl was added to a set of different wells representing the “untreated” control samples. The microtitre plates were then incubated statically at 37° C. for 24 h or 48 h. Following incubation, the supernatant was carefully discarded and the wells washed twice with 260 μl PBS. The plate was then kept for drying on a paper towel for 30 min after which 260 μl 0.1% crystal violet was added to each well and the plates incubated at room temperature for 30 min. The crystal violet was discarded and plate washed gently with water, the wells allowed to dry for 30 min then 260 μl DMSO was added to each well and gently agitated for 1 h and the O.D.570 measured by using a spectrophotometer (SpectraMAX 250, Molecular Devices). The results of these biofilm assays were based on data obtained from at least three independent colonies tested in duplicate.

S. aureus strain DK825 = experiment: microbe, parasite or virus in culture; format: cell-based, Staphylococcus aureus
Description: Antibiotic susceptibility testing. Susceptibility tests were performed in Sensititre microtitre plates according to the manufacturer's instructions (Microbiology Systems).

S. aureus strain 15981 = conditions: S. aureus 15981, hyperbiofilm human clinical strain; cited from earlier work

Row | Compound | MIC (S. aureus strain DK825; Staphylococcus aureus, MRSA) [µg/mL] | antibiotic susceptibility (S. aureus strain 15981) | further results
1 | Nc1nc2c(ncn2[C@@H]2O[C@H](COP(=O)(O)O)[C@@H](O)[C@H]2O)c(=O)[nH]1 [5′-GMP, guanosine 5′-monophosphate, reference compound] |  |  | effect on biofilm formation (S. aureus): no effect
2 | CC1(C)S[C@@H]2[C@H](NC(=O)[C@H](N)c3ccccc3)C(=O)N2[C@H]1C(=O)O [Ampicillin] | 4 (≈ 11.4 µM) |  | 
3 | C[C@H]1COc2c(N3CCN(C)CC3)c(F)cc3c(=O)c(C(=O)O)cn1c23 [Levofloxacin] | 2 (≈ 5.53 µM) |  | 
4 | CN[C@H](CC(C)C)C(=O)N[C@H]1C(=O)N[C@@H](CC(N)=O)C(=O)N[C@H]2C(=O)N[C@H]3C(=O)N[C@H](C(=O)N[C@H](C(=O)O)c4cc(O)cc(O)c4-c4cc3ccc4O)[C@H](O)c3ccc(c(Cl)c3)Oc3cc2cc(c3O[C@@H]2O[C@H](CO)[C@@H](O)[C@H](O)[C@H]2O[C@H]2C[C@](C)(N)[C@H](O)[C@H](C)O2)Oc2ccc(cc2Cl)[C@H]1O [Vancomycin] | < 0.5 | susceptible | 
5 | O=C(O)c1cn(C2CC2)c2cc(N3CCNCC3)c(F)cc2c1=O [Ciprofloxacin] | > 2 |  | 
6 | C[C@@H]1O[C@@H]1P(=O)(O)O [FOF] |  | susceptible | 
7 | Penicillin |  |  | MIC (S. aureus strain DK825; S. aureus DK825 (MRSA)): > 8 µg/mL
8 | C[C@H]1c2cccc(O)c2C(O)=C2C(=O)[C@]3(O)C(O)=C(C(N)=O)C(=O)[C@@H](N(C)C)[C@@H]3[C@@H](O)[C@@H]21 [DOX] |  | susceptible | 
9 | CC[C@H]1OC(=O)[C@H](C)[C@@H](O[C@H]2C[C@@](C)(OC)[C@@H](O)[C@H](C)O2)[C@H](C)[C@@H](O[C@@H]2O[C@H](C)C[C@H](N(C)C)[C@H]2O)[C@](C)(OC)C[C@@H](C)C(=O)[C@H](C)[C@@H](O)[C@]1(C)O [Clarithromycin] | > 4 |  | 
10 | CC1(C)S[C@@H]2[C@H](NC(=O)[C@H](N)c3ccc(O)cc3)C(=O)N2[C@H]1C(=O)O [AMX] |  | susceptible | 
11 | Cc1onc(-c2ccccc2)c1C(=O)N[C@@H]1C(=O)N2[C@@H]1SC(C)(C)[C@@H]2C(=O)O [Oxacillin] | > 2 |  | 
12 | CO[C@H]1/C=C/O[C@@]2(C)Oc3c(C)c(O)c4c(O)c(c(/C=N/N5CCN(C)CC5)c(O)c4c3C2=O)NC(=O)/C(C)=C\C=C\[C@H](C)[C@H](O)[C@@H](C)[C@@H](O)[C@@H](C)[C@H](OC(C)=O)[C@@H]1C [Rifampin] | > 2 |  | 
13 | COc1c(N2C[C@@H]3CCCN[C@@H]3C2)c(F)cc2c(=O)c(C(=O)O)cn(C3CC3)c12 [Moxifloxacin] | 2 (≈ 4.98 µM) |  | 
14 | COc1cccc(OC)c1C(=O)N[C@@H]1C(=O)N2[C@@H]1SC(C)(C)[C@@H]2C(=O)O [MET] |  | susceptible | 
15 | CCC[C@@H]1C[C@@H](C(=O)N[C@@H]([C@H]2O[C@H](SC)[C@H](O)[C@@H](O)[C@H]2O)[C@H](C)Cl)N(C)C1 [Clindamycin] | > 2 |  | 
16 | CC[C@H]1OC(=O)[C@H](C)[C@@H](O[C@H]2C[C@@](C)(OC)[C@@H](O)[C@H](C)O2)[C@H](C)[C@@H](O[C@@H]2O[C@H](C)C[C@H](N(C)C)[C@H]2O)[C@](C)(O)C[C@@H](C)C(=O)[C@H](C)[C@@H](O)[C@]1(C)O [Erythromycin] | > 4 | susceptible | 
17 | Nc1nc2c(ncn2[C@@H]2O[C@@H]3COP(=O)(O)O[C@H]3[C@H]2O)c(=O)[nH]1 [cGMP, guanosine 3′, 5′-cyclic monophosphate, reference compound] |  |  | reduction of biofilm formation (S. aureus; 24 h): ~40%
